What all share (details): primary screen
For experiment [1], the system named is ENR+CD organoids. Kind of experiment: Primary screen: ATP (CellTiter-Glo 3D, CTG) cell number/viability, 2.5-D 384-well ENR+CD organoids. (In ATP-based viability assays light output follows the ATP content of the culture.)
Experiment [2] has as its system ENR+CD organoids (ISC to Paneth cell differentiation). Kind of experiment: Primary screen: basal (non-stimulated) lysozyme secretion LYZ.NS, 2.5-D 384-well ENR+CD organoid differentiation. The class given is cell-based, mouse. The source says:
(§1) High-throughput screening.

Experiment [3] shares this test system. Kind of experiment: Primary screen: CCh-stimulated lysozyme secretion LYZ.S, 2.5-D 384-well ENR+CD organoid differentiation. The class given is cell-based, mouse.
From the text: as §1

Structures are written as SMILES.
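For Dose.FC.CTG in this document: compounds given at plating and again on day 3 over a 6-day differentiation from ENR+CV stem-cell-enriched precursors, ATP measured on day 6, plate median as control.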
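For Z.CTG (standard z score) in this document: compounds given at plating and again on day 3 over a 6-day differentiation from ENR+CV stem-cell-enriched precursors, ATP measured on day 6, plate median as control.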

Turning to `NC(=O)Nc1cc(-c2cccc(F)c2)sc1C(=O)N[C@H]1CCCNC1` [AZD7762], the Dose.FC.CTG in experiment [1] (dose 0.08 uM) is listed as 0.054 log2 fold change; in experiment [1] (dose 0.40 uM) it was −0.384 log2 fold change; in experiment [1] (dose 2.00 uM) it was −0.804 log2 fold change; in experiment [1] (dose 10.00 uM), −1.361 log2 fold change. Further, the “Z.CTG (standard z score)” value in experiment [1] (dose 0.08 uM) is given as 0.129; in experiment [1] (dose 0.40 uM), −0.917; in experiment [1] (dose 2.00 uM), −1.920; in experiment [1] (dose 10.00 uM), −3.251. Moreover, the Dose.FC.LYZ.NS in experiment [2] (dose 0.08 uM) is 0.010 log2 fold change; in experiment [2] (dose 0.40 uM), −0.159 log2 fold change; in experiment [2] (dose 2.00 uM) it was −0.211 log2 fold change; in experiment [2] (dose 10.00 uM), −0.220 log2 fold change. For the same compound, the “Z.LYZ.NS (standard z score)” value in experiment [2] (dose 0.08 uM) was 0.084; in experiment [2] (dose 0.40 uM) it was −1.385; in experiment [2] (dose 2.00 uM), −1.835; in experiment [2] (dose 10.00 uM), −1.917. Besides, the Dose.FC.LYZ.S is 0.019 log2 fold change in experiment [3] (dose 0.08 uM), −0.251 log2 fold change in experiment [3] (dose 0.40 uM), −0.342 log2 fold change in experiment [3] (dose 2.00 uM) and −0.369 log2 fold change in experiment [3] (dose 10.00 uM).

Regarding `NC(=O)c1ncn([C@@H]2O[C@H](CO)[C@@H](O)[C@H]2O)c1N` [Acadesine], the Dose.FC.CTG is 0.094 log2 fold change in experiment [1] (dose 0.08 uM), 0.173 log2 fold change in experiment [1] (dose 0.40 uM), −0.005 log2 fold change in experiment [1] (dose 2.00 uM) and 0.076 log2 fold change in experiment [1] (dose 10.00 uM). The Dose.FC.LYZ.NS is 0.023 log2 fold change in experiment [2] (dose 0.08 uM), −0.016 log2 fold change in experiment [2] (dose 0.40 uM), 0.016 log2 fold change in experiment [2] (dose 2.00 uM) and −0.070 log2 fold change in experiment [2] (dose 10.00 uM). Besides, the “Z.LYZ.NS (standard z score)” value is 0.198 in experiment [2] (dose 0.08 uM), −0.137 in experiment [2] (dose 0.40 uM), 0.140 in experiment [2] (dose 2.00 uM) and −0.607 in experiment [2] (dose 10.00 uM). In addition, the Dose.FC.LYZ.S was 0.004 log2 fold change in experiment [3] (dose 0.08 uM), −0.012 log2 fold change in experiment [3] (dose 0.40 uM), 0.053 log2 fold change in experiment [3] (dose 2.00 uM) and −0.102 log2 fold change in experiment [3] (dose 10.00 uM).

`COc1ccc2cccc(CCNC(C)=O)c2c1` [Agomelatine]: the Dose.FC.CTG in experiment [1] (dose 0.08 uM) is given as 0.106 log2 fold change; in experiment [1] (dose 0.40 uM), 0.081 log2 fold change; in experiment [1] (dose 2.00 uM), −0.198 log2 fold change; in experiment [1] (dose 10.00 uM) it was 0.024 log2 fold change. For the same compound, the Dose.FC.LYZ.NS is 0.026 log2 fold change in experiment [2] (dose 0.08 uM), 0.080 log2 fold change in experiment [2] (dose 0.40 uM), 0.069 log2 fold change in experiment [2] (dose 2.00 uM) and −0.033 log2 fold change in experiment [2] (dose 10.00 uM). The “Z.LYZ.NS (standard z score)” value is recorded as 0.227 in experiment [2] (dose 0.08 uM), 0.695 in experiment [2] (dose 0.40 uM), 0.597 in experiment [2] (dose 2.00 uM) and −0.285 in experiment [2] (dose 10.00 uM). Also, the Dose.FC.LYZ.S is 0.090 log2 fold change in experiment [3] (dose 0.08 uM), 0.132 log2 fold change in experiment [3] (dose 0.40 uM), −0.037 log2 fold change in experiment [3] (dose 2.00 uM) and 0.008 log2 fold change in experiment [3] (dose 10.00 uM).

As for `Oc1ncnc2[nH]ncc12` [Allopurinol], the Dose.FC.CTG was 0.212 log2 fold change in experiment [1] (dose 0.08 uM), −0.098 log2 fold change in experiment [1] (dose 0.40 uM), −0.162 log2 fold change in experiment [1] (dose 2.00 uM) and −0.454 log2 fold change in experiment [1] (dose 10.00 uM). The Dose.FC.LYZ.NS in experiment [2] (dose 0.08 uM) is 0.019 log2 fold change; in experiment [2] (dose 0.40 uM), −0.036 log2 fold change; in experiment [2] (dose 2.00 uM), −0.004 log2 fold change; in experiment [2] (dose 10.00 uM), −0.051 log2 fold change. Moreover, the “Z.LYZ.NS (standard z score)” value in experiment [2] (dose 0.08 uM) was 0.168; in experiment [2] (dose 0.40 uM) it was −0.314; in experiment [2] (dose 2.00 uM), −0.036; in experiment [2] (dose 10.00 uM) it was −0.442. Besides, the Dose.FC.LYZ.S in experiment [3] (dose 0.08 uM) was 0.026 log2 fold change; in experiment [3] (dose 0.40 uM), −0.086 log2 fold change; in experiment [3] (dose 2.00 uM), −0.064 log2 fold change; in experiment [3] (dose 10.00 uM) it was −0.119 log2 fold change.

On to `CCOC(=O)[C@H]1O[C@@H]1C(=O)N[C@@H](CC(C)C)C(=O)NCCC(C)C` [Aloxistatin], for which the Dose.FC.CTG is on record as −0.006 log2 fold change in experiment [1] (dose 0.08 uM), −0.006 log2 fold change in experiment [1] (dose 0.40 uM), −0.129 log2 fold change in experiment [1] (dose 2.00 uM) and −0.214 log2 fold change in experiment [1] (dose 10.00 uM). The Dose.FC.LYZ.NS in experiment [2] (dose 0.08 uM) is 0.020 log2 fold change; in experiment [2] (dose 0.40 uM), −0.029 log2 fold change; in experiment [2] (dose 2.00 uM) it was −0.037 log2 fold change; in experiment [2] (dose 10.00 uM) it was −0.142 log2 fold change. Moreover, the “Z.LYZ.NS (standard z score)” value in experiment [2] (dose 0.08 uM) was 0.171; in experiment [2] (dose 0.40 uM), −0.250; in experiment [2] (dose 2.00 uM), −0.324; in experiment [2] (dose 10.00 uM), −1.236. Further, the Dose.FC.LYZ.S is on record as 0.025 log2 fold change in experiment [3] (dose 0.08 uM), −0.016 log2 fold change in experiment [3] (dose 0.40 uM), −0.091 log2 fold change in experiment [3] (dose 2.00 uM) and −0.181 log2 fold change in experiment [3] (dose 10.00 uM).

Turning to `CCOC(=O)C1=C(COCCN)NC(C)=C(C(=O)OC)C1c1ccccc1Cl` (stereo not shown) [Amlodipine], the Dose.FC.CTG is given as −0.351 log2 fold change in experiment [1] (dose 0.08 uM), −0.363 log2 fold change in experiment [1] (dose 0.40 uM), −0.372 log2 fold change in experiment [1] (dose 2.00 uM) and −0.421 log2 fold change in experiment [1] (dose 10.00 uM). The Dose.FC.LYZ.NS in experiment [2] (dose 0.08 uM) was 0.026 log2 fold change; in experiment [2] (dose 0.40 uM), 0.024 log2 fold change; in experiment [2] (dose 2.00 uM), −0.065 log2 fold change; in experiment [2] (dose 10.00 uM), −0.135 log2 fold change. Also, the “Z.LYZ.NS (standard z score)” value in experiment [2] (dose 0.08 uM) is given as 0.228; in experiment [2] (dose 0.40 uM), 0.210; in experiment [2] (dose 2.00 uM), −0.568; in experiment [2] (dose 10.00 uM), −1.172. Further, the Dose.FC.LYZ.S in experiment [3] (dose 0.08 uM) is reported as −0.042 log2 fold change; in experiment [3] (dose 0.40 uM), −0.015 log2 fold change; in experiment [3] (dose 2.00 uM) it was −0.122 log2 fold change; in experiment [3] (dose 10.00 uM), −0.155 log2 fold change.

The record behind these values is patent US20220323406A1, “METHODS AND COMPOSITIONS FOR DIFFERENTIATING STEM CELLS” (Massachusetts Institute of Technology, priority 2019, published 2022).
